Experimental data reported in article PMC6295231 (Clinical cancer research : an official journal of the …, 2018).
Each block holds one molecule with its values, some of them ahead of it.

Assays:
[1] = system: ELK1-dependent promoter activation by AR; experiment: primary screening assay; assay type: cell-based; settings: for IC50 for inhibition of ELK1-dependent promoter activation by AR: primary screening assay, compound dose range of 1-10μM; for IC50: Homo sapiens, HeLa, read-out: IC50 for inhibition of ELK1-dependent promoter activation by AR
purified human AR = biological target: T1, purified human AR (Homo sapiens, UniProt P10275); experiment: surface plasmon resonance, binding to immobilized AR; settings: for Kd: dissociation constant (Kd) for binding to AR, SPR, AR immobilized
T1 sequence (P10275 1-920): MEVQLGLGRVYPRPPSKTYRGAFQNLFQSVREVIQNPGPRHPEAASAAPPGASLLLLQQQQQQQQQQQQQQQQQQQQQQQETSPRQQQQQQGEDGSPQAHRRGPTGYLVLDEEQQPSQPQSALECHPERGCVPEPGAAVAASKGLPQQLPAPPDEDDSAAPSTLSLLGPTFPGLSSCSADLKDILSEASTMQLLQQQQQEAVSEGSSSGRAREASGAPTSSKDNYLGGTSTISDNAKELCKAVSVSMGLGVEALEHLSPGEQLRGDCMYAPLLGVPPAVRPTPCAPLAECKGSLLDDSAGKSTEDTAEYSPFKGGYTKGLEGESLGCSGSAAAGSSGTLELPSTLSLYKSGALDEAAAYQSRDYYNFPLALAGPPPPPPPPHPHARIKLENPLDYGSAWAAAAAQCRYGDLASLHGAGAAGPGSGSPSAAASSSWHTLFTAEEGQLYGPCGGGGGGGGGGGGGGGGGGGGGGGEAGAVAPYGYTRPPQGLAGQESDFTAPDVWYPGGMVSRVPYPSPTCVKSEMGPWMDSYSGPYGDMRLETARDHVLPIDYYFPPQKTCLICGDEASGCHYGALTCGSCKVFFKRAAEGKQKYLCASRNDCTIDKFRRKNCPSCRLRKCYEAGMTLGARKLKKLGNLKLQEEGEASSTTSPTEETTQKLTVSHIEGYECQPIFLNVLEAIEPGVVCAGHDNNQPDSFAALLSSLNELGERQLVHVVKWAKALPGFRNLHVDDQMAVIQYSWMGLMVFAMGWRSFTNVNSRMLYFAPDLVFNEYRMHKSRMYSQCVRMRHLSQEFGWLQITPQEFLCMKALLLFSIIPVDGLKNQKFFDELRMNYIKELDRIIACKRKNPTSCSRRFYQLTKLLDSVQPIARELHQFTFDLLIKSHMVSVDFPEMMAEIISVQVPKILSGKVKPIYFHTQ

[2] = system: ARE-dependent promoter activation by AR; experiment: counter screening assay; assay type: cell-based; settings: words
[3] = easily oxidized; ref [33], [34]; cited from earlier work
[4] = system: AR or AR-V7 protein level; experiment: protein level of AR / AR-V7 in PC/CRPC cell lines; assay type: cell-based
VCaP cells = experiment: MTT growth assay, VCaP; settings: androgen-dependent cells
[5] = plasma/serum levels and metabolites of KCI807 by LC-MS/MS; settings: mice, 250 mg/kg IP alternate days, 6h after last injection
in vivo = settings: SCID, mouse
[6] = system: HEK293 (adenovirus transformed kidney fibroblasts); experiment: growth of AR-negative cells, HEK293; assay type: cell-based
[7] = mouse, in vivo
[8] = system: HeLa (cervical cancer cells); experiment: growth of AR-negative cells, HeLa; assay type: cell-based
[9] = system: DU145 (prostate cancer cells); experiment: growth of AR-negative cells, DU145; assay type: cell-based
[10] = biological target: association of AR with ELK1 (Homo sapiens, UniProt P10275); experiment: BRET assay of association of ELK1 with AR in HEK293T cells; assay type: cell-based; settings: pre-incubation
[11] = system: activation of ELK1 by MEK/ERK; assay type: cell-based; settings: HeLa cells co-transfected
AR-V7 = experiment: hormone-independent promoter activation by AR-V7; assay type: cell-based; settings: relatively higher concentrations required
[12] = system: H1650 (lung adenocarcinoma cells); experiment: growth of AR-negative cells, H1650; assay type: cell-based
binding of AR to ELK1 = binding of AR to ELK1 (Homo sapiens, UniProt P10275); experiment: SPR competition: binding of AR; settings: AR 200 nM
[13] = system: PDX-PR011 tumor xenograft; experiment: PDX-PR011 patient-derived tumor xenograft in male SCID mice; settings: for tumor growth, PDX-PR011 xenograft: treatment from Day 1 after implantation
22Rv1 cells = experiment: MTT growth assay, 22Rv1; settings: androgen-independent cells; up to 20 uM
[14] = system: AR recruitment to chromatin in LNCaP cells; experiment: chromatin immunoprecipitation; assay type: cell-based; settings: R1881 10nM + KCI807 20uM, 2h
LNCaP cells = experiment: MTT growth assay, LNCaP; settings: androgen-dependent cells; up to 20 uM
ELK1 = ELK1 (Homo sapiens, UniProt P19419); experiment: surface plasmon resonance, binding to immobilized ELK1; settings: SPR
22Rv1 CRPC cells = experiment: colony formation assay, 22Rv1
[15] = system: AR target genes in 22Rv1 cells; experiment: real time RT-PCR of AR target genes in 22Rv1 cells; assay type: cell-based; settings: 10 µM, 72h
ELK1 (Homo sapiens) = ELK1 (Homo sapiens) (UniProt P19419); settings: cited from earlier work
Chain of ELK1 (Homo sapiens) (P19419 whole entry): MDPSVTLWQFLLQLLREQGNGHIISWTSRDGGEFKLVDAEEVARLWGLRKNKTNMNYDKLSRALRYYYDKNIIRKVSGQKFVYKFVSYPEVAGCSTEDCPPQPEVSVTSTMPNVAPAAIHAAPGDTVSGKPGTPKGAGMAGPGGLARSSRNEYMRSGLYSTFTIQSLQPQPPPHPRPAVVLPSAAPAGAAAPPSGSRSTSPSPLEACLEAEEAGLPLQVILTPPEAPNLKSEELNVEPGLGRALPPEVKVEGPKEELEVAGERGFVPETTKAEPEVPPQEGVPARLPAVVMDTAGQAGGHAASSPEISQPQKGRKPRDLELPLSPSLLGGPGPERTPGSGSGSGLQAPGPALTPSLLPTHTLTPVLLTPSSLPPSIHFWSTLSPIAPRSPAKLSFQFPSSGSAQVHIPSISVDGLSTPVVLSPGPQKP

Chain of ELK1 (P19419 whole entry): as above

Molecule: O=c1cc(-c2ccc(O)c(O)c2)oc2ccccc12 [3’.4’-Dihydroxyflavone]
IC50 for inhibition of ELK1-dependent promoter activation by AR [1]: No effect

Molecule: O=c1cc(-c2ccc(O)c(O)c2)oc2cccc(O)c12 [5,3’,4’-Trihydroxyflavone]
IC50 [1]: 1010 nM

Molecule: COc1ccc(-c2cc(=O)c3c(O)c(OC)c(OC)cc3o2)cc1O [5,3’-Dihydroxy-6,7,4’-trimethoxyflavone]
IC50 [1]: 4170 nM

Molecule: COc1c(-c2ccc(O)c(O)c2)oc2cc(O)cc(O)c2c1=O [5,7,3’,4’-Tetrahydroxy-3-methoxyflavone]
IC50 for inhibition of ELK1-dependent promoter activation by AR [1]: No effect

Molecule: COc1cc(OC)c2c(=O)cc(-c3ccc(OC)c(OC)c3)oc2c1 [5,7,3’,4’-Tetramethoxyflavone]
IC50 for inhibition of ELK1-dependent promoter activation by AR [1]: No effect

Molecule: O=c1cc(-c2ccccc2)oc2cc(O)cc(O)c12 [5.7-Dihydroxyflavone]
IC50 for inhibition of ELK1-dependent promoter activation by AR [1]: No effect

Molecule: O=c1cc(-c2ccc(O)c(O)c2)oc2cc(O)cc(O)c12 [Hit 1, 5,7,3’,4’-Tetrahydroxyflavone]
IC50 [1]: 1010 nM
inhibition at 10 µM ([1]; Mus musculus, MIN6, 6 h, read-out: inhibition in the primary screen): 80 to 100%
effect on ARE-dependent promoter activation by AR (counter screen) [2]: virtual absence of an effect
stability in vitro [3]: highly unstable

Molecule: O=c1cc(-c2cccc(O)c2)oc2cccc(O)c12 [KCI807, 5,3’-Dihydroxyflavone]
expression of AR or AR-V7 proteins [4]: does not affect
cell growth inhibition, MTT, VCaP (VCaP cells): most sensitive
plasma level of unmetabolized compound (median), Day 11 [5]: 387 nM
plasma level of unmetabolized compound (median), Day 19 [5]: 70 nM
half-life (in vivo): 6 h
IC50 [1]: 530 nM
growth of HEK293 cells [6]: did not appreciably affect
dissociation constant for AR relative to that for binding of ELK1 to AR (purified human AR; ELK1-AR value ref [25]): ~ 3 times
Kd (purified human AR): 69.2 nM
immediate and peri-acute post-injection toxicity (dose determination) [7]: asymptomatic post all doses given
growth of HeLa cells [8]: did not appreciably affect
growth of DU145 cells [9]: did not appreciably affect
BRET coupling between ELK1 and AR [10]: inhibited
inhibition of luciferase reporter activation by MEK1 (caMEK1, Gal4-ELK1) [11]: did not inhibit
hormone-independent promoter activation by splice variant AR-V7 (AR-V7): inhibited
growth of H1650 cells [12]: did not appreciably affect
blocking of binding of purified AR (analyte) to immobilized ELK1 (binding of AR to ELK1): blocked binding
symptoms during PDX-PR011 study ([13]; mouse, in vivo): asymptomatic
weight loss during PDX-PR011 study ([13]; mouse, in vivo): did not show appreciable weight loss
tumor growth, PDX-PR011 xenograft [13]: significantly inhibited
cell growth inhibition, MTT, 22Rv1 (22Rv1 cells): completely inhibited cell growth
AR recruitment at canonical ARE enhancer sites (KLK3, TMPRSS2) [14]: did not impede
association of AR with chromatin sites at which ELK1 recruits AR [14]: prevented association
cell growth inhibition, MTT, LNCaP (LNCaP cells): completely inhibited cell growth
binding to immobilized ELK1 (ELK1): did not bind
concentration beyond which colony growth was virtually completely inhibited (22Rv1 CRPC cells): > 125 nM
expression of AR target genes (mRNA) [15]: decreased expression of only the genes known to be supported synergistically by ELK1 and AR

Molecule: CNC(=O)c1ccc(N2C(=S)N(c3ccc(C#N)c(C(F)(F)F)c3)C(=O)C2(C)C)cc1F [enzalutamide, reference compound]
cell growth inhibition, MTT, VCaP (VCaP cells): most sensitive
tumor growth, PDX-PR011 xenograft [13]: insensitive
cell growth inhibition, MTT, 22Rv1 (22Rv1 cells): only showed partial effects
cell growth inhibition, MTT, LNCaP (LNCaP cells): only showed partial effects

Molecule: CC(=O)Nc1cccc(-n2c(=O)n(C3CC3)c(=O)c3c(Nc4ccc(I)cc4F)n(C)c(=O)c(C)c32)c1 [trametinib, reference compound]
inhibition of luciferase reporter activation by MEK1 (caMEK1, Gal4-ELK1) [11]: completely inhibited

Molecule: AR (from UniProt P10275)
Kd (ELK1 (Homo sapiens)): 20 nM

Other lines, results leading:

IC50 for inhibition of ELK1-dependent promoter activation by AR [1]: No effect
Kd (purified human AR): 1430 nM
Molecule: O=c1cc(-c2cccc(O)c2)oc2ccccc12 [3’-Hydroxyflavone]

IC50 [1]: 5480 nM
Molecule: O=c1cc(-c2ccc(O)cc2)oc2cccc(O)c12 [5,4’-Dihydroxyflavone]

IC50 [1]: 1370 nM
Molecule: COc1ccc(-c2cc(=O)c3c(O)cc(O)cc3o2)cc1O [5,7,3’-Trihydroxy-4’-methoxyflavone]

IC50 for inhibition of ELK1-dependent promoter activation by AR [1]: No effect
Molecule: COc1cc(-c2cc(=O)c3c(O)cc(O)cc3o2)ccc1O [5,7,4’-Trihydroxy-3’-methoxyflavone]

IC50 [1]: > 10000 nM
Molecule: O=c1cc(-c2ccccc2)oc2cccc(O)c12 [5-Hydroxyflavone]

IC50 for inhibition of ELK1-dependent promoter activation by AR [1]: No effect
Molecule: O=c1cc(-c2ccc(O)c(O)c2)oc2cc(O)ccc12 [7,3’,4’-Trihydroxyflavone]

IC50 for inhibition of ELK1-dependent promoter activation by AR [1]: No effect
Molecule: O=c1cc(-c2cccc(O)c2)oc2cc(O)ccc12 [7,3’-Dihydroxyflavone]

IC50 for inhibition of ELK1-dependent promoter activation by AR [1]: No effect
Molecule: O=c1cc(-c2ccc(O)cc2)oc2cc(O)ccc12 [7,4’-Dihydroxyflavone]
